Columns and labels:
[1] = target: T1, hFADS6 (6-His-hFADS6; human FAD synthase isoform 6) (Homo sapiens, UniProt Q8NFF5); test: fluorimetric FAD synthesis, Michaelis-Menten fit; assay type: biochemical; details: 5 mM MgCl2, 50 mM Tris/HCl pH 7.5, 37 °C
T1 construct: gene FLAD1; 320 residues (963 bp cDNA) from Met268 of FADS1, PAPS reductase domain plus N-terminal extension; E. coli Rosetta(DE3)pLysS; monomer

[2] = target: T1, hFADS6 (6-His-hFADS6; human FAD synthase isoform 6); test: absorbance spectrum and HPLC of acid-extracted flavin from purified protein; assay type: binding; details: co-purified from E. coli; tightly but not covalently bound
[3] = target: T1, hFADS6 (6-His-hFADS6; human FAD synthase isoform 6); test: fluorimetric FAD pyrophosphorolysis; assay type: biochemical; details: NaPPi, 5 mM MgCl2, 50 mM Tris/HCl pH 7.5, 37 °C; reverse reaction; detection limit of the instrument; read-out: KmFAD
[4] = target: human FAD synthase isoform 2 (6-His-hFADS2) (human); test: SEC-MALS; tandem HPLC-GPC/LS on a Superose 12 10/300 GL column, 0.5 mL/min, 40 mM Hepes/Na, 150 mM NaCl, pH 7.4; MALS masses taken from the peaks run with 1 mM DTT

T1 sequence (Q8NFF5 268-587): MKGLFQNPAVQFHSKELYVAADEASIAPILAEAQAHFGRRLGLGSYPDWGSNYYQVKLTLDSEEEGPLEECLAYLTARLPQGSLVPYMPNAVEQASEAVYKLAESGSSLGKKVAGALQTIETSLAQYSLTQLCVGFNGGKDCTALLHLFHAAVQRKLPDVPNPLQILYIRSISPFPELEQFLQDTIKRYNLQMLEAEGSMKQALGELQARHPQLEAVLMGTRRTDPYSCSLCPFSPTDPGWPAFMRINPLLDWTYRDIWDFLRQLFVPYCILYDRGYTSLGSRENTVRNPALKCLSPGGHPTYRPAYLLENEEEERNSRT
Sequence of human FAD synthase isoform 2 (6-His-hFADS2) (enzyme) (Q8NFF5 98-587): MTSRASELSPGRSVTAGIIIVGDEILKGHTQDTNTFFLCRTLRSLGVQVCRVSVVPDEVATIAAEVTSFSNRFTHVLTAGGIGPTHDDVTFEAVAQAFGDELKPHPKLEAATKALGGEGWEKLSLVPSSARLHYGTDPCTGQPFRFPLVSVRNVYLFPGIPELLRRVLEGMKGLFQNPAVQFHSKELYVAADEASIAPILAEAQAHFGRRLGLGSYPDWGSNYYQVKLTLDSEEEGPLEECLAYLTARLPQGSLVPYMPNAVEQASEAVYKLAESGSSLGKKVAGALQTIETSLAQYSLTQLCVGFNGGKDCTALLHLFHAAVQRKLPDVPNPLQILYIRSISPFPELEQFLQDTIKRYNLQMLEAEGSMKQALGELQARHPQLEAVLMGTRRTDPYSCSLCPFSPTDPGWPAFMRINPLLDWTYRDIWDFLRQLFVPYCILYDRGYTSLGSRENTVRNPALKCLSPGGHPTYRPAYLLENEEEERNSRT

Compound: Nc1ncnc2c1ncn2[C@@H]1O[C@H](COP(=O)(O)OP(=O)(O)OP(=O)(O)O)[C@@H](O)[C@H]1O [ATP]
- Km ([1]; 2 µM FMN, read-out: KmATP (apparent)): 6.91 ± 0.51 µM

Compound: Cc1cc2nc3c(=O)[nH]c(=O)nc-3n(C[C@H](O)[C@H](O)[C@H](O)COP(=O)(O)OP(=O)(O)OC[C@H]3O[C@@H](n4cnc5c(N)ncnc54)[C@H](O)[C@@H]3O)c2cc1C [FAD]
- FAD/monomer ratio [2]: demonstrates that the bound cofactor is FAD
- Km [3]: < 100 nM

Compound: Cc1cc2nc3c(=O)[nH]c(=O)nc-3n(C[C@H](O)[C@H](O)[C@H](O)COP(=O)(O)O)c2cc1C [FMN]
- Km ([1]; 100 µM ATP, read-out: KmFMN (apparent)): 0.13 ± 0.01 µM

Compound: human FAD synthase isoform 2 (6-His-hFADS2) (enzyme)
- stoichiometry N [4]: 2
